The results in this text go back to PubChem BioAssay (NCI).

Each structure is given as a SMILES string.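 Five concentrations, 48 hours, 96-well plates. GI50 = concentration required for 50% inhibition of growth. TGI denotes the concentration required for complete inhibition of growth.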 *1 amine or outer side, *2 acyl side, *3 side chain or, on linkers, in order; H or OH if unused. Where a SMILES comes first, the peptide text is derived from it. CO = O=C([*:1])[*:2] Some results are limits rather than exact numbers.

Some test systems named below: A549 NSCLC; OVCAR-3 ovarian; CAKI-1 renal; 786-0 renal; SN12C renal; SR leukemia; SF-268 CNS; HOP-92 NSCLC; MDA-MB-435; PC-3 prostate.
Common to all, as to experiment: growth of human tumour cells (NCI), 48 h

`Cn1cc(C(=O)/C(Cl)=C(\Cl)C(=O)O)c2ccccc21`: the TGI with A549 NSCLC, with OVCAR-3 ovarian, in the assay on CAKI-1 renal and in the assay on 786-0 renal was over 100 µM in each case.
On to `C/C=C/CP(=O)(c1ccccc1)c1ccccc1`, for which the TGI with SN12C renal, in the assay with A549 NSCLC, in the assay on OVCAR-3 ovarian, in the assay with SR leukemia and in the assay on 786-0 renal was over 100 µM in each case.
As for `O=C(CC1(O)C(=O)Nc2ccccc21)c1ccc(O)cc1O` (configuration not stated), the TGI with SF-268 CNS, with SN12C renal, in the assay on A549 NSCLC, in the assay on OVCAR-3 ovarian, with CAKI-1 renal and in the assay with HOP-92 NSCLC was over 100 µM throughout. In addition, the TGI in the assay on 786-0 renal was over 100 µM.
With `NC1=NN(c2ccccc2)C(=O)C1C(=O)C(=O)Nc1cccc(C(F)(F)F)c1` (configuration not stated), the TGI with SF-268 CNS, with SN12C renal, in the assay on A549 NSCLC, in the assay with OVCAR-3 ovarian, in the assay with CAKI-1 renal and in the assay on HOP-92 NSCLC was over 100 µM in each case. For the same compound, the TGI with 786-0 renal is over 100 µM.
For the compound `CCN(CC)CCCN1C(=O)c2c(c(C)c3c(oc4cc(O)ccc43)c2C)C1=O`, the GI50 in the assay on MDA-MB-435 is 1760 nM; in the assay with SF-268 CNS it was 1740 nM; with SN12C renal it was 1.81 µM; in the assay on A549 NSCLC, 1.85 µM; with OVCAR-3 ovarian it was 1790 nM; with SR leukemia, 1580 nM. For the same compound, the GI50 in the assay on CAKI-1 renal was 1.62 µM; with HOP-92 NSCLC it was 1480 nM; in the assay with 786-0 renal, 1.8 µM. The TGI in the assay with MDA-MB-435 was found to be 3.22 µM; in the assay on SF-268 CNS, 3.34 µM; with SN12C renal, 3.41 µM; in the assay with A549 NSCLC, 3.54 µM; with OVCAR-3 ovarian it was 3.27 µM; in the assay on SR leukemia, 3.99 µM. Moreover, the TGI with CAKI-1 renal was found to be 3.05 µM; with HOP-92 NSCLC, 3.02 µM; in the assay on 786-0 renal, 3.43 µM.
Turning to `O=C(Nc1ccc(N=Nc2ccccc2)cc1)Sc1ccccc1C(=O)O`, the TGI with SF-268 CNS, in the assay on SN12C renal, with A549 NSCLC, with OVCAR-3 ovarian, in the assay with SR leukemia and in the assay on CAKI-1 renal was over 100 µM each time. Also, the TGI in the assay with 786-0 renal is over 100 µM.
As for `CC(C)C(NC(=O)C(CCCN=C(N)N)NC(=O)NC(Cc1ccccc1)C(=O)O)C(=O)NC(C=O)CCCN=C(N)N` (stereo not drawn) ({Phe-CO}-Arg-Val-Arg-aldehyde; configuration not given here), the GI50 was over 5000 nM in the assay with MDA-MB-435; over 5000 nM in the assay with SF-268 CNS; over 5 µM in the assay with SN12C renal; over 5 µM in the assay on A549 NSCLC; over 5000 nM in the assay with OVCAR-3 ovarian; over 5 µM with PC-3 prostate. Moreover, the GI50 in the assay with CAKI-1 renal and with 786-0 renal was over 5 µM each time. Moreover, the TGI in the assay on MDA-MB-435, in the assay on SF-268 CNS, in the assay on SN12C renal, with A549 NSCLC, with OVCAR-3 ovarian and in the assay with PC-3 prostate was over 5 µM in each case. The TGI in the assay on CAKI-1 renal and in the assay with 786-0 renal was over 5 µM in each case.
On to `O[C@H]1[C@H]2[C@H](O)CCCN2C[C@H]1O`, for which the TGI in the assay on SF-268 CNS, in the assay with SN12C renal, in the assay on A549 NSCLC, with OVCAR-3 ovarian, in the assay with CAKI-1 renal and with HOP-92 NSCLC was over 100 µM each time. This compound registered a TGI in the assay on 786-0 renal of over 100 µM.
As to `COC1=CC(C)C2C[C@H]3O[C@H](O)C[C@H]4C(C)C(=O)C(O)C([C@@]2(C)C1=O)[C@@]34C` (some centres not stated), the TGI in the assay on SN12C renal, in the assay on A549 NSCLC, in the assay with OVCAR-3 ovarian, with CAKI-1 renal, in the assay on HOP-92 NSCLC and with 786-0 renal was over 100 µM throughout.
In the case of `COc1ccc2c(c1)C(=O)c1c-2c(N2CCN(C(=O)CN(C)C)CC2)nc2ccccc12`, the GI50 was 30200 nM with MDA-MB-435; 17300 nM with SF-268 CNS; 13 µM with SN12C renal; 13.8 µM with A549 NSCLC; 19500 nM in the assay with OVCAR-3 ovarian; 14.4 µM with PC-3 prostate. In addition, the GI50 is 47.9 µM in the assay with CAKI-1 renal, 5690 nM with HOP-92 NSCLC and 14.4 µM in the assay with 786-0 renal. Moreover, the TGI with MDA-MB-435 was determined as 98 µM; in the assay on SF-268 CNS, 44.3 µM; in the assay with SN12C renal, 27.9 µM; with A549 NSCLC, 37 µM; with OVCAR-3 ovarian, 58.6 µM; with PC-3 prostate, 31.5 µM. Besides, the TGI in the assay with CAKI-1 renal was over 100 µM; in the assay on HOP-92 NSCLC, 24.2 µM; in the assay on 786-0 renal, 33.7 µM.
As to `N#Cc1c(C(N)=O)ncn1Cc1ccccc1`, the TGI with SF-268 CNS, with SN12C renal, in the assay with A549 NSCLC, in the assay with OVCAR-3 ovarian, in the assay with CAKI-1 renal and in the assay on HOP-92 NSCLC was over 100 µM in each case. Moreover, the TGI with 786-0 renal was over 100 µM.
On to `O=C1CC(c2ccccc2)NCN1` (configuration not stated), for which the TGI in the assay with SF-268 CNS, in the assay on SN12C renal, with A549 NSCLC, in the assay on OVCAR-3 ovarian, in the assay on SR leukemia and with CAKI-1 renal was over 100 µM in each case. Also, the TGI with 786-0 renal was over 100 µM.
On to `O=C(/C=C/C12c3ccccc3C(c3ccccc31)C1C(=O)NC(=O)C12)c1ccco1` (configuration not stated), for which the GI50 in the assay with MDA-MB-435 was 2350 nM; in the assay with SF-268 CNS, 2720 nM; in the assay with SN12C renal it was 3.21 µM; with A549 NSCLC, 3.25 µM; in the assay on OVCAR-3 ovarian, 2470 nM; in the assay on PC-3 prostate it was 1.74 µM. The GI50 in the assay with CAKI-1 renal is 3.74 µM; with HOP-92 NSCLC it was 1740 nM; in the assay on 786-0 renal, 3.28 µM. For the same compound, the TGI in the assay on MDA-MB-435 was 5.84 µM; with SF-268 CNS, 9.1 µM; with SN12C renal, 11.3 µM; with A549 NSCLC, 10.1 µM; with OVCAR-3 ovarian it was 5.8 µM; with PC-3 prostate, 5 µM. Besides, the TGI with CAKI-1 renal came out at 14 µM; in the assay on HOP-92 NSCLC it was 4.54 µM; with 786-0 renal it was 10.8 µM.
